From patent US20260041649A1, “ANTI-INFLAMMATORY AGENT” (WATANABE OYSTER LABORATORY, CO., LTD., priority 2023, published 2026)

Key:
[1] = test system: mouse macrophage RAW264.7 cells; experiment: Cell number after 5 hours incubation with or without LPS; format: cell-based; details: DHMBA 0.1-1000 μM
Protocol: RAW264.7 cells (1×10^5/ml/well) were cultured in a DMEM culture medium containing 10% FBS, 1% P/S, and 1% fungizone. Cells were treated with a vehicle (1% ethanol; DHMBA 0 μM as final concentration) or DHMBA (0.1, 1, 10, 100, or 1000 μM) and incubated for 5 hours (FIG. 6A).
Cells (1×10^5/ml per well) were cultured for 3 days in a DMEM culture medium containing 10% FBS, 1% P/S, and 1% fungizone in the presence of LPS (100 ng/ml in all cultures). Cells were treated with a vehicle (1% ethanol; DHMBA 0 μM as final concentration) or DHMBA (0.1, 1, 10, 100, or 1000 μM) and incubated for 5 hours (FIG. 6B).
After the culture, the number of cells attached to the dish was counted. Data are presented as the mean±SD from a total of 8 wells of two plates using different cell preparations. […] No significant changes were observed by […] LPS treatment compared to the controls (gray bars). Statistical analysis was performed using 1-way ANOVA with Tukey-Kramer post-test.
RAW264.7 cells (1×10^5/ml per well) were cultured in a DMEM culture medium containing 10% FBS and 1% P/S using a 24-well plate for 3 days until they reached subconfluence. […] The concentrations of TNF-α, IL-6, IL-⊕, and PGE2 in the culture medium were measured using ELISA kits. […] The amount of each cytokine produced was expressed as pictograms (pg) secreted into the culture medium (ml).

[2] = test system: mouse macrophage RAW264.7 cells; experiment: Western blotting of caspase-3 and cleaved caspase-3; format: cell-based; details: DHMBA 10 μM, 3 days
Protocol: FIG. 4 is an explanatory diagram describing that the marine factor 3,5-dihydroxy-4-methoxy benzyl alcohol (DHMBA) stimulates cell death in mouse macrophage RAW264.7 cells. RAW264.7 cells (1×10^5 cells/ml/well in a 24-well plate) were cultured in DMEM containing 10% FBS, 1% P/S, and 1% fungizone for 3 days until they reached subconfluence. The cells were cultured for another 24 hours (FIG. 4A) or 48 hours (FIG. 4B) in the control group (1% ethanol; 0 μM DHMBA as final concentration) and in the DHMBA-treated group (0.1, 1, 10, 100, or 1000 μM). […] After the culture, the number of cells attached to the dish was counted. […]
RAW264.7 cells (1×10^6 cells/10 ml of 100 mm dish) were cultured for 3 days in 10% FBS, 1% P/S (1% ethanol), or in the DHMBA-treated group (10 μM). […] Protein concentrations in the supernatants were measured using Bio-Rad Protein Assay Dye (Bio-Rad Laboratories, Inc., Hercules, CA, USA) with bovine serum albumin as a standard. […] After incubation, the membranes were further incubated with horseradish peroxidase-conjugated secondary antibodies (Santa Cruz Biotechnology Inc., cat. no. sc-2005 (mouse) or sc-2305 (rabbit); dilution 1:2000) for 60 min at room temperature, and protein bands were detected using chemiluminescence substrates (cat. no. 34577, Thermo Fisher Scientific Inc., Rockford, IL, USA) on X-ray films. […]

`COc1c(O)cc(CO)cc1O` [DHMBA, 3,5-dihydroxy-4-methoxybenzyl alcohol] was tested, and the “number of RAW264.7 cells” value ([1]; LPS 100 ng/ml) was “remained unchanged”, the “number of RAW264.7 cells” value ([1]; absence of LPS) was “remained unchanged” and the “level of caspase-3” value [2] was “increased”. For the same molecule, the “level of cleaved caspase-3” value [2] was “increased”.
